Assay results as given in ChEMBL document CHEMBL1152941, “Isocoumarin glucosides from the scale insect fungus Torrubiella tenuis BCC 12732” (J Nat Prod, 2009).
Converted amounts (≈) assume the structure as drawn. The source made the active and inactive calls. No cut-off for these calls is given here.

Assays:
[1] = tested on: KB; experiment: Cytotoxicity against human KB cells by resazurin microplate assay; assay type: functional, cell-based
[2] = tested on: MCF7; experiment: Cytotoxicity against human MCF7 cells by resazurin microplate assay; assay type: functional, cell-based
[3] = tested on: NCI-H187; experiment: Cytotoxicity against human NCI-H187 cells by resazurin microplate assay; assay type: functional, cell-based
[4] = tested on: Mycobacterium tuberculosis; experiment: Antitubercular activity against Mycobacterium tuberculosis H37Ra by green fluorescent protein microplate assay; assay type: functional
[5] = tested on: Human alphaherpesvirus 1; experiment: Antiviral activity against HSV1 by green fluorescent protein microplate assay; assay type: functional, organism-based
[6] = tested on: Plasmodium falciparum; experiment: Antimalarial activity against Plasmodium falciparum K1 by microculture radioisotope technique; assay type: functional, organism-based
[7] = tested on: Vero; experiment: Cytotoxicity against african green monkey Vero cells by green fluorescent protein microplate assay; assay type: cell-based; conditions: Chlorocebus sabaeus
[8] = Human alphaherpesvirus 1, read-out: IC50

Row | SMILES | MIC [4] | Activity [6] | Activity [1] | IC50 [5] | Activity [3] | other results
1 | COc1cccc2c1C(=O)c1c(O)c3c(c(O)c1C2=O)C[C@@](O)(C(=O)CO)C[C@@H]3O[C@H]1C[C@H](N)[C@H](O)[C@H](C)O1 [DOXORUBICIN] |  |  |  |  |  | IC50 [1]: 0.144 µg/mL (≈ 0.265 µM); IC50 [2]: 0.899 µg/mL (≈ 1.65 µM); IC50 [3]: 0.058 µg/mL (≈ 0.107 µM)
2 | NNC(=O)c1ccncc1 [ISONIAZID] | 0.023 µg/mL (≈ 0.168 µM) |  |  |  |  | 
3 | Nc1nc2c(ncn2COCCO)c(=O)[nH]1 [ACYCLOVIR] |  |  |  |  |  | IC50 [5, 8]: 6.86 µg/mL (≈ 30.5 µM)
4 | CO[C@H]1[C@H](O)[C@@H](O)[C@H](Oc2cc(O)c3c(=O)oc(CO)cc3c2)O[C@@H]1CO | inactive | inactive | inactive | Not Active | inactive | Activity [2]: inactive
5 | CO[C@H]1[C@H](O)[C@@H](O)[C@H](Oc2cc(O)c3c(=O)oc(C)cc3c2)O[C@@H]1CO | inactive | inactive | inactive | Not Active | inactive | 
6 | C[C@H]1[C@@H](O)O[C@@H]2O[C@@]3(C)CC[C@H]4[C@H](C)CC[C@@H]1[C@@]24OO3 [ARTENIMOL] |  |  |  |  |  | IC50 [6]: 0.0011 µg/mL (≈ 0.00387 µM)
7 | O=c1oc(CO)cc2cc(O)cc(O)c12 | 25 µg/mL (≈ 120 µM) |  |  |  | inactive | IC50 [5, 8]: 50 µg/mL (≈ 240 µM)
8 | Cc1cc2cc(O)cc(O)c2c(=O)o1 | inactive | inactive | inactive | Not Active | inactive | 
9 | Cc1c2ccncc2c(C)c2c1[nH]c1ccccc12 [ELLIPTECINE] |  |  |  |  |  | IC50 [7]: 1.16 µg/mL (≈ 4.71 µM)
10 | CO[C@H]1[C@H](O)[C@@H](O)[C@H](OCc2cc3cc(O)cc(O)c3c(=O)o2)O[C@@H]1CO | inactive | inactive | inactive | Not Active | inactive | 
